Experimental findings from patent US12285416B2 (priority 2017, dated 2025) are described below.

Assay [1] deals with rat left phrenic nerve-diaphragm preparation.
Assay [2] has the same test system. This is another data set of the same source.
For assay [3] the test system is unchanged. This is another data set of the same source.
For a further assay, the system named is anesthetized rabbit. The settings on record: in vivo, iv.
In assay [4] the test system is anesthetized/ventilated rat. The settings on record: in vivo.

“And” between values parts separate entries of the source, which are not always exact repeats. Equal entries are not always repeated. Where two headings read alike, the source gives them in different places.

Regarding `C[C@@H]1O[C@H](C[N+](C)(C)C)C[C@H]1O` (racemic) [Muscarine, (±)-Muscarine chloride hydrate], the “effect on force and maximal rate of change” value in assay [1] was “minimal or slight reduction of force, and maximal rate of change”. Also, in assay [1] (hydrate), the “Contraction Amplitude, Raw Values” was 14.5 ± 1.4 g and 13.5 ± 1.2 g and 13.3 ± 1.2 g and 13.5 ± 1.3 g; the “Max Rate of Change, Raw Values” is 341 ± 45 g/s and 314 ± 45 g/s and 321 ± 41 g/s and 329 ± 39 g/s.

Take `CN(C)C(=O)Oc1cccc([N+](C)(C)C)c1` [Neostigmine]: in assay [2], the “Contraction Amplitude, Raw Values” came to 6.3 ± 0.5 g; the “Contraction Amplitude, Δ from 50% reduction with MMB4” value was 0.6 g and 0.6 ± 0.1 g; the “Max Rate of Change, Raw Values” worked out at 153 ± 12 g/s; the “Max Rate of Change, Δ from 50% reduction with MMB4” value came to 20 ± 4 g/s. Besides, in assay [3], the “Contraction Amplitude, Neostigmine with d-tubocurarine Raw Values” is 5.9 ± 0.8 g and 5.2 ± 0.6 g and 4.7 ± 1.2 g; the “Max Rate of Change, Neostigmine with d-tubocurarine Raw Values” was 141 ± 30 g/s and 131 ± 21 g/s and 108 ± 39 g/s.

With `CN1CCC[C@H]1c1cccnc1` [Nicotine, (−)-Nicotine detartrate], in assay [1], the “Contraction Amplitude, Raw Values” is 10.8 ± 3.2 g and 9.7 ± 2.6 g; the “Max Rate of Change, Raw Values” is 229 ± 97 g/s and 225 ± 102 g/s and 201 ± 94 g/s; the effect on contraction entry is “depressed contraction”; the “effect on contraction and maximal rate of change” value is given as “positive effect”.

On to `CS(=O)(=O)[O-].[Na+]` [Sodium Methanesulfonate], for which, in assay [1], the “Contraction Amplitude, Raw Values” was 9.1 ± 0.8 g and 8.9 ± 0.8 g and 8.6 ± 0.8 g and 8.2 ± 0.7 g; the “Max Rate of Change, Raw Values” is 211 ± 48 g/s and 214 ± 48 g/s and 210 ± 48 g/s and 197 ± 45 g/s; the effect on function entry is on record as “minimal effect on function”.

In the case of `COc1cc2c3cc1Oc1cc(ccc1O)C[C@@H]1c4c(cc(OC)c(O)c4Oc4ccc(cc4)C[C@@H]3N(C)CC2)CC[N+]1(C)C` [d-tubocurarine, d-tubocurarine chloride hydrate], in assay [3], the “Contraction Amplitude, Raw Values” is 5.2 ± 0.8 g and the “Max Rate of Change, Raw Values” is 106 ± 22 g/s. Moreover, in assay [3] (hydrate), the “Contraction Amplitude, d-tubocurarine Raw Values” is 5.2 ± 0.9 g and 4.3 ± 0.5 g and 4.4 ± 1.1 g; the “Max Rate of Change, d-tubocurarine Raw Values” was 119 ± 31 g/s and 101 ± 20 g/s and 101 ± 35 g/s.

For Cisatracurium (Besilate salt), in the assay with anesthetized rabbit, the “Diaphragmatic Force” value was 5.4 ± 1.0 g, the “Diaphragmatic Force relative change from baseline” value was −77 ± 6%, the HR is recorded as 282 ± 7 bpm and the “HR relative change from baseline” value is recorded as 0 ± 1%. Besides, in the assay on anesthetized rabbit, the ITP is reported as 15.1 ± 0.6 mmHg, the “ITP relative change from baseline” value worked out at 7 ± 4%, the LVEDP amounted to 7.6 ± 1.1 mmHg and the “LVEDP relative change from baseline” value stood at 17 ± 8%. For the same molecule, in the assay on anesthetized rabbit, the LVdP/dtmax is listed as 2760 ± 246 mmHg/s, the “LVdP/dtmax relative change from baseline” value is −6 ± 3%, the MAP stood at 63 ± 6 mmHg and the “MAP relative change from baseline” value is listed as −3 ± 3%. In addition, in the assay on anesthetized rabbit, the “Skeletal Force” value came out at 1.1 ± 0.5 g, the “Skeletal Force relative change from baseline” value is on record as −86 ± 5%, the tau is listed as 8.7 ± 0.2 ms and the “tau relative change from baseline” value was 0 ± 1%. Also, in the assay on anesthetized rabbit (0.1 mg/kg), the “effect on cardiovascular function” value is on record as “negligible effects in cardiovascular function”; the “effect on skeletal and diaphragmatic contractions” value was “reversible inhibition of skeletal and diaphragmatic contractions”.

Consider pralidoxime chloride [2-PAM], for which the “effect on diaphragmatic function” value in assay [4] is on record as “depression”.
